Results published in patent US20140328940A1, “MODULATION OF AXON DEGENERATION” (Genentech, Inc., priority 2009, published 2014).

Assays:
cortical neurons = assay: vincristine challenge of cortical neurons, LDH assay; type: cell-based, rat; conditions: 20 hour vincristine (300 nM)
Protocol: (§1) Cortical neurons were isolated using the following procedure. Rat E18 cortices devoid of meninges were dissected into ice-cold neurobasal media (Invitrogen). Cortices were dissociated in a final concentration of 0.1% trypsin/PBS (Worthington) for 30 minutes at 37° C. A final concentration of 0.1% RNase (Roche) was added to the tube and tissue was incubated at room temperature for 1 minute. Tissue was washed once with warm neurobasal media and the tissue was allowed to settle in the tube before 1 mL of neurobasal media containing 2% B27 supplement (Invitrogen) was added. Tissue was dissociated by trituration with a P1000 pipet (Rainin). The cells were counted and, for some experiments, transfected with siRNAs using a Biosystem 96-well nucleofector (Amaxa).
(§2) Cells were plated in 6- or 8-well chambers or 96-well poly-D-lysine coated dishes (BD Biosciences) at plated cell densities of 2×10^6 cells/well, 1.25-2×10^5 cells/well, or 1×10^4 cells/well, respectively, for siRNA experiments (densities that allow for some cell death normally associated with the electroporation process). […] Gene silencing was assayed 3-4 days after plating by quantitative reverse transcriptase polymerase chain reaction (qRT-PCR). […] Each reaction containing 10 ng of RNA was run in triplicate using the Quantifect SYBR Green RT-PCR kit (Qiagen) with DLK-, JNK1-, JNK2-, or JNK3-specific primers. […]

[1] = vincristine challenge of cortical neurons, viability assay; type: cell-based; conditions: rat, primary E18 cortical neurons; 12 hour vincristine (300 nM); read-out: % Viability (normalized)
Protocol: as §1, §2

[2] = toxin-induced degeneration of sympathetic neurons (MTT assay); type: cell-based; conditions: Sprague-Dawley, rat, primary sympathetic neurons from cervical ganglia, 24 hour vincristine, read-out: % viability (normalized)
Protocol: Sympathetic cervical ganglia were dissected from postnatal day 1 Sprague-Dawley rats (Charles River Labs) and collected in a dish containing Ultraculture media (Lonza) with 5% fetal bovine serum (Invitrogen). Ganglia were washed twice with serum-free Ultraculture media, and a final concentration of 0.1% trypsin (Worthington) was added and incubated with the tissue at 37° C. for 30 minutes. One percent DNase (Roche) solution in PBS was added to the ganglia and incubated at room temperature for 1-2 minutes. Ganglia were washed with Ultraculture and allowed to settle to the bottom of the tube. All wash media were removed and 1 mL plating media containing Ultraculture, 5% rat serum, 1% penicillin-streptomycin, 1% glutamax, 7 μM cytosine arabinoside (Sigma), and 50 ng/mL nerve growth factor (2.5S, Cedarlane Laboratory) was added to the tube. Ganglia were dissociated by trituration using a pipet (Rainin). The cell slurry was filtered over a […] cell strainer (Falcon) and cell number was counted. Sympathetic neurons were plated at a density of 5000-7500 cells/well (96-well dish), 200,000 cells/well (6-well plate), or 100,000 cells/well (8-well chamber slide) and grown for 4-5 days in 5% CO2 at 37° C. Every other day neurons were fed with fresh plating media containing 5-10 ng/mL NGF.
NGF withdrawal assays were performed as described in Example 14A. […]

For `CC[C@]1(O)C[C@H]2CN(CCc3c([nH]c4ccccc34)[C@@](C(=O)OC)(c3cc4c(cc3OC)N(C=O)[C@H]3[C@@](O)(C(=O)OC)[C@H](OC(C)=O)[C@]5(CC)C=CCN6CC[C@]43[C@@H]65)C2)C1` [vincristine], the “% cell death (normalized)” value (cortical neurons) was 100%, the viability at 12 h, 0.3 µM [1] was 77% and the viability at 24 h [2] was 28%.
